Series [1] is described as follows: Absorbance and fluorescence spectra of the agents. The settings on record: for Excitation (DMSO): excitation maximum in 100% DMSO; for Excitation(MeOH): excitation maximum in absolute methanol; for ExcitationddH2O: excitation maximum in distilled/deionized water; for Emission(DMSO): fluorescence emission maximum in DMSO; for Emission(MeOH): fluorescence emission maximum in MeOH; for EmissionddH2O: fluorescence emission maximum in ddH2O. It counts as physicochemical. How it is done:
Absorbance spectra of the agents were measured using a UV-Vis spectrometer (PerkinElmer Lambda™ 20, PerkinElmer, Inc., Waltham Mass.) in wavelengths ranging from 200-to-800 nm in 100% dimethylsulfoxide (DMSO), absolute methanol (MeOH), and distilled/deionized water (ddH2O). The wavelength corresponding to the maximum absorbance is recorded and used as the excitation wavelength for future fluorescence measurements.
The fluorescence spectra of the agents were collected in DMSO, MeOH, and ddH2O under continuous excitation using a xenon short arc light source (Ushio UXL 75W, Ushio America, Inc., Cyress Calif.) equipped fluorimeter (350-900 nm; PTI Fluorimeter, Photon Technology International Birmingham, N.J.). A+ indicates binding to nerves using the ex vivo histochemical assay.

For a further series, the system named is nerve tissue sections. As to the kind of experiment: Ex vivo staining of nerve tissue sections by the agents (histochemical assay). It counts as binding, rat. Set-up: key to Nerve binding, ex vivo: A+ indicates binding to nerves using the ex vivo histochemical assay. The settings on record: for Nerve binding, ex vivo: 10 uM agent, 20 minutes, nerve tissue sections; for staining of the trigeminal nerves: rat trigeminal nerve sections, FIG. 1. An excerpt:
Various nerves including sciatic, femoral, brachial plexus, trigeminal, optic, and penile were harvested from male Sprague Dawley rats or male CD-1 mice. Tissue was fixed by perfusion and/or post-fixation with formalin. Following post-fixation, tissue was cryoprotected in a 20% sucrose solution made in phosphate buffered saline (PBS). Nerves were then flash-frozen using methanol and dry ice in OCT media. In some cases, PVDF membranes were used to help keep the nerves vertical in the OCT media. Thin sections (5-10 microns) were sliced on a Leica microtome (Leica Microsystems GmbH, Wetzlar Germany) and stored in a −80° C. freezer prior to staining with agents (1)-(5).
The agents were dissolved in DMSO to make a 10 mM stock solution. Slides containing nerve tissue sections were rinsed three times with PBS. The tissue sections were incubated with a solution of 10 uM of each fluorophore diluted in either PBS or a mixture of 99 uL DMSO, 100 uL cremaphor, 600 uL rat serum, and 200 uL PBS for 20 minutes. The slides were then washed with PBS for 5 min three times, cover-slipped with Vectashield and imaged on a Zeiss Axioimager microscope (Carl Zeiss Meditec, Inc., Oberkochen, Germany) at 200× magnification. A custom filter cube (excitation filter: 387 nm with 11 nm bandpass, 409 nm dichroic mirror; emission filter 409 nm long pass) was used to collect images for examination of morphology and for image analysis.
The control slides, containing the nerves with no agent (not shown), was negative under the same imaging conditions.

Series [2] is described as follows: Dynamic light scattering measurement of aqueous solubility. It counts as physicochemical. The settings on record: 25° C., angle of 173°, in nm (unit assumed). How it is done:
Dynamic light scattering spectroscopy was used to measure aqueous solubility. Measurements were collected on a Malvern HPPS500 spectrometer (Malvern Instruments Inc., Southborough, Mass.). Samples were measured in a low volume disposable cuvette at 25° C., at an angle of 173°. Each sample was analyzed in duplicate. Z average measurements were taken to determine the relative molecular “size” of the formulation in terms of the hydrodynamic diameter (DH) radius in solution. DH is inversely related the z-average translational diffusion coefficient (D) in the solution.

The test system of another series is nerves. As to the kind of experiment: In vivo fluorescence imaging of nerves. Set-up: species or system mice. The settings on record: for nerve-to-adipose tissue ratio: fluorescence emission of 600 nm, compared to agents (4) and (5), FIG. 2. How it is done: To assess the efficacy of the sulfonamide agents in-vivo the agents were formulated using the following excipients: 5-20% propylene glycol (v/v; JT Baker 9402-01), 5-30% 2-Hydroxylpropyl-β-Cyclodextrin (w/v; Sigma H5784) and 70-90% distilled/deionized water (v/v).
To prepare the pharmaceutical carrier, each excipient is added individually beginning with propylene glycol. Propylene glycol is added directly to the agent and vortexed for approximately 1 minute to guarantee maximal dispersal of the agent in the excipient. The next excipient to be added to the solution is 2-Hydroxylpropyl-β-Cyclodextrin. Cyclodextrin's are cyclic (R-1,4) linked oligosaccharides containing a relatively hydrophobic central cavity and hydrophilic outer surface. The application of cyclodextrin in formulation is to enhance the solubility of a compound in aqueous solutions. In formulation of the sulfonamide analogs a final concentration of 5-15%; 2-Hydroxypropyl β-cyclodextrin (w/v) is added to the solution. The formulation is again vortexed for 1-5 minutes and the pH adjusted to a final range between 4-5. The final step in the formulation is to bring the solution to the volume with distilled/deionized water.
Male CD-1 mice between 25-35 grams were purchased from Charles River Laboratories (Wilmington, Mass.). Prior to administration of the agent, animals were briefly anesthetized using 2% isofluorane. Each agent was then administered in a 15.2 mg/kg dose via tail vein catheterization. Each rodent was allowed to recover from anesthesia prior to returning to the home cage.
Structure (2) and (3) were administered at an average of 15 mg/kg formulated in the pharmaceutical carrier. Formulated agents were administered in mice 4 hours prior to imaging using a Zeiss Lumara microscope (Carl Zeiss Meditec, Inc., Oberkochen, Germany) with an attached CRI Nuance™ camera for multispectral fluorescence imaging (Cambridge Research & Instrumentation, Inc., Woburn, Mass.). The excitation wavelengths used were 406/15 nm or 460/60 nm.
The adjacent muscle tissues had very low background binding. […]

Here are results for seven compounds from US8658129B2, “Agents and methods for the imaging of myelin basic protein” (General Electric Company, priority 2009, dated 2014).

In series [1], `COc1cc(/C=C/c2ccc(S(=O)(=O)N3CCOCC3)cc2)ccc1/C=C/c1ccc(N)cc1` [(1)] showed an Excitation (DMSO) of 422 nm, an Excitation(MeOH) of 392 nm, an ExcitationddH2O of 380 nm and an Emission(DMSO) of 621 nm. In series [1], this compound showed an Emission(MeOH) of 604 nm and an EmissionddH2O of 581 nm. Moreover, in the series with nerve tissue sections, the “Nerve binding, ex vivo” value is reported as “+” and the “staining of the trigeminal nerves” value is on record as “myelinated donut-shaped structures are visible”.

`COc1cc(/C=C/c2ccc(S(C)(=O)=O)cc2)ccc1/C=C/c1ccc(N)cc1` [(4)] came in with a Z-average in series [2] of 2210.00.

Turning to `COc1cc(/C=C/c2ccc(C#N)cc2)ccc1/C=C/c1ccc(N)cc1` [(5)], the “time at which nerve-to-muscle ratio is best” value with nerves (mice, FIG. 4) is given as “four”. For the same compound, the Z-average in series [2] is 7365.00.

On to `COc1cc(/C=C/c2ccc(S(=O)(=O)N3CCN(CCO)CC3)cc2)ccc1/C=C/c1ccc(N)cc1.Cl` [(3)], for which, in series [1], the Excitation (DMSO) worked out at 388 nm, the Excitation(MeOH) was found to be 380 nm, the ExcitationddH2O turned out to be 412 nm and the Emission(DMSO) worked out at 615 nm. Further, in series [1], the Emission(MeOH) worked out at 488 nm and the EmissionddH2O was found to be 626 nm. The Z-average in series [2] was 29.70. In the series on nerve tissue sections, the “Nerve binding, ex vivo” value is “+” and the “staining of the trigeminal nerves” value was “myelinated donut-shaped structures are visible”.

`COc1cc(/C=C/c2ccc(S(=O)(=O)N3CCN(CCO)CC3)cc2)ccc1/C=C/c1ccc(N)cc1.Cl` [Structure 3]: in the series on nerves, the nerve-to-adipose tissue ratio entry is listed as “higher”.

`COc1cc(/C=C/c2ccc(S(=O)(=O)N(CCO)CCO)cc2)ccc1/C=C/c1ccc(N)cc1` [Structure 2]: the nerve-to-adipose tissue ratio entry in the series on nerves is listed as “higher”.

In series [1], `COc1cc(/C=C/c2ccc(S(=O)(=O)N(CCO)CCO)cc2)ccc1/C=C/c1ccc(N)cc1` [(2)] gave an Excitation (DMSO) of 392 nm, an Excitation(MeOH) of 391 nm, an ExcitationddH2O of 409 nm and an Emission(DMSO) of 600 nm. For the same compound, in series [1], the Emission(MeOH) is 680 nm and the EmissionddH2O came to 620 nm. Further, in the series with nerve tissue sections, the “Nerve binding, ex vivo” value was “+” and the “staining of the trigeminal nerves” value is recorded as “myelinated donut-shaped structures are visible”.
